# From BindingDB's records for doi:10.1021/jm8000949 (China Pharmaceutical University, 2008)
# Biological target: T1, Glycogen phosphorylase, muscle form (Oryctolagus cuniculus, UniProt P00489)
# T1 sequence (P00489 whole entry): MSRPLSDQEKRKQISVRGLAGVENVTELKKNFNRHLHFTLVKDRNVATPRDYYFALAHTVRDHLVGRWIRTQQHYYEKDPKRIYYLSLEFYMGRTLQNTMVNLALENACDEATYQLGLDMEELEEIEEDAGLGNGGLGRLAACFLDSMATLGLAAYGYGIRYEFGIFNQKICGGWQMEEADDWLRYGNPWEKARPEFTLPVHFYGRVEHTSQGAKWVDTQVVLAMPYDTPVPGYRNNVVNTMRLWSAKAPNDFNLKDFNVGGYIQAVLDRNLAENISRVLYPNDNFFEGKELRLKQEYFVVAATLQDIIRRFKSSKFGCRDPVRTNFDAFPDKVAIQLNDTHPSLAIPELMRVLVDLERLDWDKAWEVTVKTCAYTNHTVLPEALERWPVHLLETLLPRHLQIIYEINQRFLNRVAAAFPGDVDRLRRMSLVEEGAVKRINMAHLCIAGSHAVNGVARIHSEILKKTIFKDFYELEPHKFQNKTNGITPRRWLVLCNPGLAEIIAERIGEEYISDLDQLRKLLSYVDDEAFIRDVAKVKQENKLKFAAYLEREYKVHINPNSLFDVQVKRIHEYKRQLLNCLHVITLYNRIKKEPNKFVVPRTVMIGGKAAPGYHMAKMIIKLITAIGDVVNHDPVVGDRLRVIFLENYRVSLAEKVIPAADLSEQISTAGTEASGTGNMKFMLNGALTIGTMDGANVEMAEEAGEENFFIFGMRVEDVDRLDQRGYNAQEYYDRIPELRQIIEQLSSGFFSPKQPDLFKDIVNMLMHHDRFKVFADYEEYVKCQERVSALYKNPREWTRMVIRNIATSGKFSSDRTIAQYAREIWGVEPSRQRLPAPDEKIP
# Experiment: Enzyme Inhibition Assay
# Details: pH 7.2; 22 °C
# Description: The activity of the compounds is determined by measuring the inhibitory effect of the compounds in the direction of glycogen synthesis, the conversion of glucose-1-phosphate into glycogen with the release of inorganic phosphate, which was monitored using microplate reader (BIO-RAD). […] The IC50 values were estimated by fitting the inhibition data to a dose dependent curve using a logistic derivative equation.
row,SMILES,IC50 [µM]
1,"C[C@H]1[C@H](C)CC[C@]2(C(=O)O)CC[C@]3(C)C(=CC[C@@H]4[C@@]5(C)CC[C@@H](O)C(C)(C)C5CC[C@]43C)[C@H]12 (stereo partly drawn) [(1S,2R,4aS,6aS,6bR,10R,12aR,12bR,14bS)-10-hydroxy-1,2,6a,6b,9,9,12a-heptamethyl-1,2,3,4,4a,5,6,6a,6b,7,8,8a,9,10,11,12,12a,12b,13,14b-icosahydropicene-4a-carboxylic acid]",19
2,"C[C@H]1[C@H](C)CC[C@]2(C(=O)O)CC[C@]3(C)C(=CC[C@@H]4[C@@]5(C)CC[C@H](O)C(C)(C)C5CC[C@]43C)[C@H]12 (stereo partly drawn) [(1S,2R,4aS,6aS,6bR,10S,12aR,12bR,14bS)-10-hydroxy-1,2,6a,6b,9,9,12a-heptamethyl-1,2,3,4,4a,5,6,6a,6b,7,8,8a,9,10,11,12,12a,12b,13,14b-icosahydropicene-4a-carboxylic acid]",9
3,"C[C@H]1[C@H](C)CC[C@]2(C(=O)O)CC[C@]3(C)C(=CC[C@@H]4[C@@]5(C)CCC(=O)C(C)(C)C5CC[C@]43C)[C@H]12 (stereo partly drawn) [(1S,2R,4aS,6aS,6bR,12aR,12bR,14bS)-1,2,6a,6b,9,9,12a-heptamethyl-10-oxo-1,2,3,4,4a,5,6,6a,6b,7,8,8a,9,10,11,12,12a,12b,13,14b-icosahydropicene-4a-carboxylic acid]",57
4,"C[C@H]1[C@H](C)CC[C@]2(C(=O)O[C@@H]3O[C@H](CO)[C@@H](O)[C@H](O)[C@H]3O)CC[C@]3(C)C(=CC[C@@H]4[C@@]5(C)C[C@@H](O)[C@H](O)C(C)(C)C5CC[C@]43C)[C@H]12 (stereo partly drawn) [(2S,3R,4S,5S,6R)-3,4,5-trihydroxy-6-(hydroxymethyl)oxan-2-yl (1S,2R,4aS,6aS,6bR,10R,11R,12aR,12bR,14bS)-10,11-dihydroxy-1,2,6a,6b,9,9,12a-heptamethyl-1,2,3,4,4a,5,6,6a,6b,7,8,8a,9,10,11,12,12a,12b,13,14b-icosahydropicene-4a-carboxylate]",106
5,"CC1(C)CC[C@]2(C(=O)O[C@@H]3O[C@H](CO)[C@@H](O)[C@H](O)[C@H]3O)CC[C@]3(C)C(=CC[C@@H]4[C@@]5(C)CC[C@H](O)C(C)(C)C5CC[C@]43C)[C@@H]2C1 (stereo partly drawn) [(2S,3R,4S,5S,6R)-3,4,5-trihydroxy-6-(hydroxymethyl)oxan-2-yl (4aS,6aS,6bR,10S,12aR,12bR,14bS)-10-hydroxy-2,2,6a,6b,9,9,12a-heptamethyl-1,2,3,4,4a,5,6,6a,6b,7,8,8a,9,10,11,12,12a,12b,13,14b-icosahydropicene-4a-carboxylate]",293
6,"CC1(C)C2CC[C@]3(C)[C@H](CC=C4[C@@H]5C[C@@](C)(C(=O)O)CC[C@]5(C)CC[C@]43C)[C@@]2(C)CC[C@@H]1O (stereo partly drawn) [(2S,4aS,6aS,6bR,10S,12aR,12bR,14bR)-10-hydroxy-2,4a,6a,6b,9,9,12a-heptamethyl-1,2,3,4,4a,5,6,6a,6b,7,8,8a,9,10,11,12,12a,12b,13,14b-icosahydropicene-2-carboxylic acid]",82
7,"CC1(C)C2CC[C@]3(C)[C@H](C(=O)C=C4[C@@H]5C[C@@](C)(C(=O)O)CC[C@]5(C)CC[C@]43C)[C@@]2(C)CC[C@@H]1O (stereo partly drawn) [(2S,4aS,6aS,6bR,10S,12aS,12bR,14bR)-10-hydroxy-2,4a,6a,6b,9,9,12a-heptamethyl-13-oxo-1,2,3,4,4a,5,6,6a,6b,7,8,8a,9,10,11,12,12a,12b,13,14b-icosahydropicene-2-carboxylic acid]",66
8,CC1(C)CC[C@]2(C(=O)O)CC[C@]3(C)C(=CC[C@@H]4[C@@]5(C)CCC(=O)C(C)(C)C5CC[C@]43C)[C@@H]2C1 (stereo not given in full) [pentacyclic triterpene compound 6],18
9,CC1(C)C2CC[C@]3(C)[C@H](C(=O)C=C4[C@@H]5C[C@@](C)(C(=O)O)CC[C@]5(C)CC[C@]43C)[C@@]2(C)CC[C@@H]1O[C@H]1O[C@H](C(=O)O)[C@@H](O)[C@H](O)[C@H]1O[C@@H]1O[C@H](C(=O)O)[C@@H](O)[C@H](O)[C@H]1O (stereo not given in full) [pentacyclic triterpene compound 7],822
10,C[C@H]1[C@H](C)CC[C@]2(C(=O)O[C@@H]3O[C@H](CO)[C@@H](O)[C@H](O)[C@H]3O)CC[C@]3(C)C(=CC[C@@H]4[C@@]5(C)CC[C@H](O)C(C)(C)C5CC[C@]43C)[C@H]12 (stereo not given in full) [pentacyclic triterpene compound 19],97
